Read-outs that look alike come from different tables or passages of the source. No end group written: not given here.
How the values were obtained:
S. aureus ATCC 33592 = assay type: cell-based, Staphylococcus aureus
Procedure: (§1) The strains that were used in this study (Table 2 and Table S1) were cultivated at 37 °C in cation-adjusted Mueller–Hinton broth (CAMB) in Erlenmeyer flasks, or on the same medium with agar in Petri dishes. Exceptionally, Mycobacterium smegmatis was cultivated at 37 °C in brain heart infusion (BHI) medium that was supplemented with 1% Tween-80 in Erlenmeyer flasks, or on the same medium lacking detergent but with agar in Petri dishes. Strains listed with Robert Koch Institute (RKI) strain numbers are clinical isolates from the RKI strain collection originating from hospitalized patients in Germany. The remaining strains originated from the Sanofi strain collection and they were originally purchased from the American Type Culture Collection or the German Collection of Microorganisms and Cell Cultures. Meropenem/colistin-resistant strains were maintained, as described above, with the appropriate antibiotic added at levels below the minimal inhibitory concentration (MIC).
(§2) The MIC values were determined in 384-well microtiter plates with an assay volume of 20 µL. Immediately before each assay, the cultures of test organisms (bacteria grown for 18 h, Candida albicans and M. smegmatis grown for 48 h) were diluted with the appropriate medium to a density of 1 × 10^6 cells/mL (C. albicans), 1 × 10^5 cells/mL (M. smegmatis) or 5 × 10^5 cells per mL (other species). […] We transferred 2-µL aliquots from this dilution series to new 384-well microtiter plates while using a CyBio-Well 384-channel automated pipettor (Analytic Jena, Jena, Germany) and added 18 µL of the diluted suspension of each test species using a Viafill reagent dispenser (Integra), thus reducing the final peptide concentration 10-fold to the range 1024–0.03125 µg/mL. […] The growth of M. smegmatis was measured using the BacTiter-Glo luminescence test system (Promega, Madison, WI, USA). The growth of the other species was determined by visual inspection of the microtiter plate and turbidimetry based on the optical density at 600 nm (OD600). The MIC was defined as the peptide concentration at which no bacterial growth was observed. We supplemented the test medium with either 150 mM NaCl or 1.25 mM CaCl2 to represent monovalent and divalent cations to simulate physiological conditions.

E. coli ATCC 25922 = tested on: E. coli ATCC 25922
Procedure: as §1
The MIC values were determined in 384-well microtiter plates with an assay volume of 20 µL. Immediately before each assay, the cultures of test organisms (bacteria grown for 18 h, Candida albicans and M. smegmatis grown for 48 h) were diluted with the appropriate medium to a density of 1 × 10^6 cells/mL (C. albicans), 1 × 10^5 cells/mL (M. smegmatis) or 5 × 10^5 cells per mL (other species). The peptides were dissolved in sterile water at a concentration of 10.24 mg/mL and a 1:2 dilution series was prepared in a 384-well microtiter plate to achieve the concentration range 10,240–0.3125 µg/mL in a volume of 50 µL. We transferred 2-µL aliquots from this dilution series to new 384-well microtiter plates while using a CyBio-Well 384-channel automated pipettor (Analytic Jena, Jena, Germany) and added 18 µL of the diluted suspension of each test species using a Viafill reagent dispenser (Integra), thus reducing the final peptide concentration 10-fold to the range 1024–0.03125 µg/mL. The cells were incubated at 37 °C and 85% relative humidity, shaking at 180 rpm for 48 h (M. smegmatis), 24 h (C. albicans) or 18 h (other species). The growth of M. smegmatis was measured using the BacTiter-Glo luminescence test system (Promega, Madison, WI, USA). The growth of the other species was determined by visual inspection of the microtiter plate and turbidimetry based on the optical density at 600 nm (OD600). […] We supplemented the test medium with either 150 mM NaCl or 1.25 mM CaCl2 to represent monovalent and divalent cations to simulate physiological conditions.

Canida albicans FH2173 = assay type: cell-based, Candida albicans; details: 24 h
Procedure: as §1, §2

E. coli RKI 131/08 = test: microbe, parasite or virus in culture; assay type: cell-based, Escherichia coli
Procedure: as §1, §2

K. pneumoniae RKI 93/10 = test: microbe, parasite or virus in culture; assay type: cell-based, Klebsiella pneumoniae
Procedure: as §1, §2

[1] = tested on: Enterobacter cloacae RKI 146/09; test: microbe, parasite or virus in culture; assay type: cell-based
Procedure: as §1, §2

A. baumannii RKI 19/09 = test: microbe, parasite or virus in culture; assay type: cell-based, Acinetobacter baumannii
Procedure: as §1, §2

[2] = tested on: Acinetobacter baumannii ATCC 19606; assay type: cell-based
Procedure: as §1, §2

[3] = tested on: Enterococcus faecium DSM 17050; assay type: cell-based
Procedure: as §1, §2

[4] = tested on: Klebsiella oxytoca RKI 52/07; assay type: cell-based
Procedure: as §1, §2

[5] = tested on: Klebsiella pneumoniae DSM 30104; assay type: cell-based
Procedure: as §1, §2

[6] = tested on: Listeria monocytogenes DSM 20600; assay type: cell-based
Procedure: as §1, §2

[7] = tested on: Mycobacterium smegmatis ATCC 607; assay type: cell-based
Procedure: as §1, §2

[8] = tested on: Proteus mirabilis DSM 4479; assay type: cell-based
Procedure: as §1, §2

[9] = tested on: Pseudomonas aeruginosa ATCC 27853; assay type: cell-based
Procedure: as §1, §2

[10] = tested on: Staphylococcus aureus ATCC 25923; assay type: cell-based
Procedure: as §1, §2

[11] = tested on: Staphylococcus epidermidis ATCC 35984; assay type: cell-based
Procedure: as §1, §2

E. coli RKI 6A-6 = test: microbe, parasite or virus in culture; assay type: cell-based, Escherichia coli
Procedure: as §1, §2

K. pneumoniae RKI 268/15 = assay type: cell-based, Klebsiella pneumoniae
Procedure: as §1, §2

K. pneumoniae RKI 68/16 = assay type: cell-based, Klebsiella pneumoniae
Procedure: as §1, §2

Escherichia coli D31 = assay type: cell-based
Procedure: as §1, §2

[12] = tested on: Stenotrophomonas maltophilia RKI 136/09; assay type: cell-based; details: n=3
Procedure: as §1, §2

[13] = CAMB + 0.075 µg/mL colistin (Col), n=3
[14] = CAMB adjusted to 1.25 mM CaCl2, n=3
[15] = CAMB adjusted to 150 mM NaCl, n=3

Measured: MIC

GFLKKVGKKLEGASDLTRDATIQTIAVAQAAANVAATAKQG [EtCec3]
>1024 µg/mL: S. aureus ATCC 33592; ATCC 33592, 18 h | E. coli ATCC 25922; ATCC 25922, 18 h | Canida albicans FH2173 | E. coli RKI 131/08; RKI 131/08, 18 h | K. pneumoniae RKI 93/10; RKI 93/10, 18 h | [1]; RKI 146/09, 18 h | A. baumannii RKI 19/09; RKI 19/09, 18 h | [2]; ATCC 19606, 18 h | [3]; DSM 17050, 18 h | [4]; 18 h | [5]; DSM 30104, 18 h | [6]; DSM 20600, 18 h | [7]; ATCC 607, 48 h | [8]; DSM 4479, 18 h | [9]; ATCC 27853, 18 h | [10]; ATCC 25923, 18 h | [11]; ATCC 35984, 18 h

GWLRDFGKRIERTGQNIRDATIQTIGIAQEAANVAATLKG [EtCec2]
8 µg/mL: [2]; [15]
4 µg/mL: E. coli ATCC 25922; [13] | A. baumannii RKI 19/09; [13]
512 µg/mL: [12]; Table 4, CAMB
16 µg/mL: K. pneumoniae RKI 93/10; [13] | A. baumannii RKI 19/09; [15] | A. baumannii RKI 19/09; Table 4, CAMB, n=3 | [2]; [13] | Escherichia coli D31; CAMB, 18 h, 37 °C, n = 4 | [5]; [15]
32 µg/mL: E. coli RKI 131/08; [15] | E. coli RKI 131/08; Table 4, CAMB, n=3 | [2]; CAMB, 18 h, 37 °C, n = 4 | [2]; Table 4, CAMB, n=3 | [4]; Table 5, CAMB, n=3 | [5]; [14] | [5]; CAMB, 18 h, 37 °C, n = 4 | [5]; Table 4, CAMB, n=3
128 µg/mL: E. coli ATCC 25922; [14] | K. pneumoniae RKI 93/10; Table 4, CAMB, n=3 | [1]; [14] | [1]; [15]
256 µg/mL: E. coli RKI 6A-6; Table 4, CAMB, n=3 | K. pneumoniae RKI 93/10; [14] | K. pneumoniae RKI 93/10; [15] | K. pneumoniae RKI 268/15; Table 4, CAMB, n=3 | K. pneumoniae RKI 68/16; Table 4, CAMB, n=3 | [12]; CAMB adjusted to 150 mM NaCl
2 µg/mL: E. coli RKI 131/08; [13] | [4]; [13] | [5]; [13]
>1024 µg/mL: S. aureus ATCC 33592; CAMB, 18 h, 37 °C, n = 4 | Canida albicans FH2173; CAMB, 37 °C, n = 4 | [3]; CAMB, 18 h, 37 °C, n = 4 | [6]; CAMB, 18 h, 37 °C, n = 4 | [7]; BHI, 48 h, 37 °C, BacTiter-Glo, n = 4 | [8]; CAMB, 18 h, 37 °C, n = 4 | [9]; CAMB, 18 h, 37 °C, n = 4 | [10]; CAMB, 18 h, 37 °C, n = 4 | [11]; CAMB, 18 h, 37 °C, n = 4
64 µg/mL: E. coli ATCC 25922; [15] | E. coli ATCC 25922; CAMB, 18 h, 37 °C, n = 4 | E. coli ATCC 25922; Table 4, CAMB, n=3 | E. coli RKI 131/08; [14] | [1]; [13] | [1]; Table 4, CAMB, n=3 | [2]; [14]

colistin [reference compound]
2 µg/mL: [1]; Table 5, CAMB, n=3 | [4]; Table 5, CAMB, n=3
1 µg/mL: K. pneumoniae RKI 93/10; Table 5, CAMB, n=3 | [2]; Table 5, CAMB, n=3
0.5 µg/mL: E. coli ATCC 25922; Table 5, CAMB, n=3 | E. coli RKI 131/08; Table 5, CAMB, n=3 | A. baumannii RKI 19/09; Table 5, CAMB, n=3 | [5]; Table 5, CAMB, n=3

GFLKKIGKKLEGAVQRTRDATIQTIAVAQAAANVAATAKQG [EtCec1]
>1024 µg/mL: S. aureus ATCC 33592; ATCC 33592, 18 h | Canida albicans FH2173 | [3]; DSM 17050, 18 h | [6]; DSM 20600, 18 h | [7]; ATCC 607, 48 h | [8]; DSM 4479, 18 h | [10]; ATCC 25923, 18 h | [11]; ATCC 35984, 18 h
32 µg/mL: E. coli RKI 6A-6; RKI 6A-6, 18 h
256 µg/mL: [9]; ATCC 27853, 18 h
16 µg/mL: E. coli ATCC 25922; ATCC 25922, 18 h | A. baumannii RKI 19/09; RKI 19/09, 18 h | Escherichia coli D31; D31, 18 h | [4]; 18 h
64 µg/mL: K. pneumoniae RKI 268/15; RKI 268/15, 18 h | K. pneumoniae RKI 68/16; RKI 68/16, 18 h
